Test results taken from patent publication US20230009608A1, “GRK2 INHIBITORS AND USES THEREOF” (Cygnal Therapeutics, Inc., priority 2020, published 2023).
Where two headings read alike, the source gives them in different places.

Experiments:
GRK2 = biological target: T1, GRK2 (Homo sapiens, UniProt P25098); test: GRK2 Inhibition Assay (TR-FRET, Example 7); format: biochemical
T1 construct: purchased SignalChem A14-10G
T1 sequence (P25098 1-689): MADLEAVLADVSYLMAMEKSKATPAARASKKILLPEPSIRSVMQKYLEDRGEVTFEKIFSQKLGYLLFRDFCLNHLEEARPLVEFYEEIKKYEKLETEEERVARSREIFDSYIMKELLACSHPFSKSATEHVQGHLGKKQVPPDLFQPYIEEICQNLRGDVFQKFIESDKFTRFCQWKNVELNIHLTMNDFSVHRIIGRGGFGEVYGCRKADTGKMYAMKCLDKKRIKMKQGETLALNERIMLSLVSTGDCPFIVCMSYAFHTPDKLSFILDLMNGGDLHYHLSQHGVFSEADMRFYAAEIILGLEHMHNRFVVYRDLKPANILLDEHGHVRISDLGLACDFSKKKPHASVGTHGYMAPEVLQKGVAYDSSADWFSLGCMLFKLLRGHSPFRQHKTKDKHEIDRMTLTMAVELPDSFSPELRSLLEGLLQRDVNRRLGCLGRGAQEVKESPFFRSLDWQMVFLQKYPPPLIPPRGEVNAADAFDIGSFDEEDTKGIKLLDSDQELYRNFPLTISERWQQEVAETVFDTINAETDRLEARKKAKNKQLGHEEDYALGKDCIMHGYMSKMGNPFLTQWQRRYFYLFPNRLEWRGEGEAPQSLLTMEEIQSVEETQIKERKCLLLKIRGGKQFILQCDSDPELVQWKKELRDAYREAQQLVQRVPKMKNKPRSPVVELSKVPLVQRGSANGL
In short: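 GRK2 at 1 nM preincubated 30 min with compound, then reacted 90 min at room temperature with 7 μM ATP and 50 nM ULight-TopoIIα in HEPES/MgCl2/DTT buffer. Phosphorylation detected by TR-FRET after Eu anti-TopoIIα and EDTA addition, 60 min.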

[1] = system: PAXF1657 control empty vector cell line; test: 7-day proliferation assay, PAXF1657 control empty vector cell line (Example 9); format: cell-based; details: 168 h; Cell Line: PAXF1657 empty vector (EV) cell line; 7-day; read-out: C: 7-day proliferation assay: IC50 GeoMean
In short: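 PAXF1657 isogenic lines (GRK2-overexpressing vs empty vector; CRISPR GRK2 knockout vs non-targeting control clones) seeded 500 cells/well in RPMI1640/10% FBS and treated next day with 10-point dilutions, 30 μM-0.0002 μM final, 0.3% DMSO. Media with compound refreshed after 3 days; viability read by CellTiter-Glo luminescence at day 7.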

[2] = Enzyme Assay B, TR-FRET (Example 7), read-out: B: Enzymatic GRK2: IC50 (nM) (Example 7)

IC50 (GRK2; [2])	IC50 (GRK2; TR-FRET GRK2 enzyme assay, read-out: B: Enzymatic GRK2: IC50 (nM) (Example 7))	Compound	IC50 [1]	IC50 (GRK2)
94 nM	–	CCc1cnccc1CNC(=O)c1cccc(NCc2nnc(-c3ccncn3)n2CCCNC)c1	> 30000 nM	–
24 nM	–	Cn1c(CNc2cccc(C(=O)N[C@H]3CCOc4ccc(F)cc43)c2)nnc1-c1ccncn1	> 30000 nM	–
20 nM	–	Cn1c(CNc2cc(C(=O)N[C@@H]3CCOc4c(Cl)cccc43)ccn2)nnc1-c1ccncn1	2070 nM	–
6.1 nM	–	O=C(NCc1cccc(F)c1)c1cccc(NCc2nnc(-c3ccncc3)[nH]2)c1	14500 nM	–
23 nM	–	CCc1cnccc1CNC(=O)c1cccc(NCc2nnc(-c3ccncn3)n2CCCOC)c1	> 30000 nM	–
2.1 nM	–	O=C(N[C@H]1CCOc2ccccc21)c1cccc(NCc2nnc(-c3ccncc3)[nH]2)c1	> 1760 nM	–
6.7 nM	–	COc1cccc(OC)c1CNC(=O)c1cccc(NCc2nnc3n2CCOc2cnccc2-3)c1	> 30000 nM	–
1.7 nM	–	O=C(NCc1cccc2c1OCC2)c1cccc(NCc2nnc(-c3ccncn3)n2CCO)c1	> 30000 nM	–
240 nM	–	Cc1ccc2c(c1)[C@@H](NC(=O)c1cccc(NCc3nnc(-c4ccncn4)n3C)c1)CC(C)(C)O2	> 30000 nM	–
8.2 nM	–	CCCn1c(CNc2cccc(C(=O)NCc3ccccc3OCC)c2)nnc1-c1ccncn1	> 30000 nM	–
26 nM	–	Cn1c(CNc2cc(C(=O)N[C@@H]3COc4ccccc43)ccn2)nnc1-c1ccncn1	1800 nM	–
15 nM	–	COc1ccc(CNC(=O)c2cccc(NCc3nnc(-c4ccncc4)[nH]3)c2)c(F)c1	18800 nM	–
8.2 nM	–	O=C(N[C@H]1CCOc2ccccc21)c1cccc(NCc2nnc(-c3ccncc3)n2CCO)c1	4580 nM	–
39 nM	–	Cn1c(CNc2cccc(C(=O)NCc3cc[nH]n3)c2)nnc1-c1ccncn1	> 10000 nM	–

The remaining lines, values behind:

Compound	IC50 (GRK2; [2])	IC50 (GRK2; TR-FRET GRK2 enzyme assay, read-out: B: Enzymatic GRK2: IC50 (nM) (Example 7))	IC50 [1]	IC50 (GRK2)
Cc1cccc([C@@H](CO)NC(=O)c2ccnc(NCc3nnc(-c4ccncn4)n3C)c2)c1	96 nM	–	> 30000 nM	–
COc1ccc(CNC(=O)c2cccc(NCc3nnc(-c4ccncc4)n3CCO)c2)c(F)c1	4.9 nM	–	> 30000 nM	–
COc1ccc(CNC(=O)c2cccc(NCc3nnc4n3CCOc3cnccc3-4)c2)c(F)c1	1.6 nM	–	> 30000 nM	–
CCOc1ccccc1CNC(=O)c1cccc(NCc2nnc(-c3ccncc3)n2CCO)c1	19 nM	–	6310 nM	–
O=C(NCc1cccc2c1OCC2)c1cccc(NCc2nnc3n2CCOc2cnccc2-3)c1	2.4 nM	–	3010 nM	–
O=C(NCc1ccccc1OS(=O)(=O)F)c1cccc(NCc2nnc(-c3ccncc3)n2CCCO)c1	–	–	> 30000 nM	17 nM
Cc1cccc([C@H](CO)NC(=O)c2ccnc(NCc3nnc(-c4ccncn4)n3C)c2)c1	16 nM	–	> 30000 nM	–
Cn1c(CNc2cccc(C(=O)N[C@H]3CCOc4cc(F)ccc43)c2)nnc1-c1ccncn1	6.4 nM	–	> 30000 nM	–
CCCn1c(CNc2cccc(C(=O)NCc3ccccc3C(F)(F)F)n2)nnc1-c1ccncn1	200 nM	–	> 10000 nM	–
O=C(N[C@@H]1CCOc2c(Cl)cccc21)c1cccc(NCc2nnc(-c3ccncn3)n2CCO)c1	4.6 nM	–	123 nM	–
COc1cccc(OC)c1CNC(=O)c1cccc(NCc2nnc(-c3ccncc3)n2CCO)c1	23 nM	–	> 30000 nM	–
Cn1c(CNc2cccc(C(=O)N[C@H](C#N)c3ccccc3C(F)(F)F)c2)nnc1-c1ccncn1	–	3.5 nM	54.4 nM	–
Cc1cccc2ncc(CNC(=O)c3cccc(NCc4nnc(-c5ccncn5)n4CCO)c3)n12	1 nM	–	3080 nM	–
Cc1cccc2ncc(CNC(=O)c3ccnc(NCc4nnc(-c5ccncn5)n4C)c3)n12	24 nM	–	> 30000 nM	–
CCCn1c(CNc2cncc(C(=O)NCc3ccccc3C(F)(F)F)c2)nnc1-c1ccncn1	30 nM	–	> 30000 nM	–
Cn1c(CNc2cccc(C(=O)N[C@H]3CC(C)(C)Oc4ccccc43)c2)nnc1-c1ccncn1	30 nM	–	> 30000 nM	–
